Laboratory results as given in ChEMBL document CHEMBL3596130 (Bioorg Med Chem Lett, 2015).
Square brackets hold non-standard residues; d marks the D form. Peptide text beside a SMILES is read from it. * marks the point of attachment. Tyr(Nα,Nα-allyl2) = C=CCN(CC=C)[C@@H](Cc1ccc(O)cc1)C(=O)*; Aib = CC(C)(N)C(=O)O

How the values were obtained:
[1] = target: T1, Delta-type opioid receptor (Homo sapiens, UniProt P41143); experiment: Displacement of [3H]DPDPE from human DOR expressed in CHO cells; type: cell-based
[2] = target: Kappa-type opioid receptor (Homo sapiens, UniProt P41145); experiment: Displacement of [3H]U-69,593 from human KOR expressed in CHO cells; type: cell-based
Homo sapiens [3] = species: Homo sapiens; experiment: Selectivity index, ratio of Ki for human MOR to Ki for human DOR
Homo sapiens [4] = species: Homo sapiens; experiment: Selectivity index, ratio of Ki for human KOR to Ki for human DOR
[5] = target: T1, Delta-type opioid receptor; experiment: Inverse agonist activity at human DOR expressed in CHO cell membranes by [35S]GTPgammaS binding assay relative to control; type: functional
Mu-type opioid receptor = Mu-type opioid receptor (Homo sapiens, UniProt P35372); experiment: Displacement of [3H]DAMGO from human MOR expressed in CHO cells; type: cell-based
[6] = target: T1, Delta-type opioid receptor; experiment: Inverse agonist activity at human DOR expressed in CHO cell membranes by [35S]GTPgammaS binding assay; type: functional

Chain of Kappa-type opioid receptor (P41145 whole entry): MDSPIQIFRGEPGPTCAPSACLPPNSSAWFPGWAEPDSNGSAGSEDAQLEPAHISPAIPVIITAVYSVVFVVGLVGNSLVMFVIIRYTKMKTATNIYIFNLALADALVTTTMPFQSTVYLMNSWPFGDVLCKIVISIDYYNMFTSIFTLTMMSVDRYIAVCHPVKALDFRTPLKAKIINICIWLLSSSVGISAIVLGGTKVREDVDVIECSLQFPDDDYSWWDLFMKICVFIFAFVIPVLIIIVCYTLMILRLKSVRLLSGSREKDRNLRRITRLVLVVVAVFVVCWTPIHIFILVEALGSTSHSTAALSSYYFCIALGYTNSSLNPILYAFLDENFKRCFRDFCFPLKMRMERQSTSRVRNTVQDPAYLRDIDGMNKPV
Chain of Mu-type opioid receptor (P35372 whole entry): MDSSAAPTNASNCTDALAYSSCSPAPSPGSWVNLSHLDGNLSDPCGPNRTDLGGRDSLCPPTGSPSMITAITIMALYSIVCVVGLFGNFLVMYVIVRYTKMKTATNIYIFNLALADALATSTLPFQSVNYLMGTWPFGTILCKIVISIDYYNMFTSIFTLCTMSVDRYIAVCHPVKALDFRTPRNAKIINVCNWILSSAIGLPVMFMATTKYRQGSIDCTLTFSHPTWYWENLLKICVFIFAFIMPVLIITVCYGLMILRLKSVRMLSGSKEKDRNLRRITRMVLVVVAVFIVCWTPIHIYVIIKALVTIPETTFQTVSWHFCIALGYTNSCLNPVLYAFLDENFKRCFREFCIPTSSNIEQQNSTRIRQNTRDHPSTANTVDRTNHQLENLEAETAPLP
T1 sequence (P41143 whole entry): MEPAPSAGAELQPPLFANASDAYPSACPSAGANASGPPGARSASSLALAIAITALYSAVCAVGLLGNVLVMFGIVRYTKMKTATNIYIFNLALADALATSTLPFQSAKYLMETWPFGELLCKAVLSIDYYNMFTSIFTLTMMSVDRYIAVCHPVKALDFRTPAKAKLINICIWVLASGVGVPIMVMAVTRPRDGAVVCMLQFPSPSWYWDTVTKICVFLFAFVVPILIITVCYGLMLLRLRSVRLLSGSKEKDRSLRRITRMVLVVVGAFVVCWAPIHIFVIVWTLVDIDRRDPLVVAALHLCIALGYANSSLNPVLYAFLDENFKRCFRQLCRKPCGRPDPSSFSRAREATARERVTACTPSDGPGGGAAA

| Structure (SMILES) | Ki [1] | Ki [2] | Ratio Ki (Homo sapiens [3]) | Ratio Ki (Homo sapiens [4]) | Emax [5] | Ki (Mu-type opioid receptor) | EC50 [6] |
| --- | --- | --- | --- | --- | --- | --- | --- |
| CCCN1CC[C@]23c4c5ccc(O)c4O[C@H]2c2nc4ccccc4cc2C[C@@]3(O)[C@H]1C5 | 2.77 nM | 313 nM | 44.5 | 113 | 62.4% | 123 nM | 5.85 nM |
| Oc1ccc2c3c1O[C@H]1c4nc5ccccc5cc4C[C@@]4(O)[C@@H](C2)N(CCF)CC[C@]314 | 5.58 nM | 854 nM | 75.7 | 153 | 27.1% | 422 nM | 24.7 nM |
| Oc1ccc2c3c1O[C@H]1c4nc5ccccc5cc4C[C@@]4(O)[C@@H](C2)N(CC(F)(F)F)CC[C@]314 | 37.8 nM | > 1000 nM |  |  |  | > 1000 nM |  |
| C=CCN(CC=C)[C@@H](Cc1ccc(O)cc1)C(=O)NC(C)(C)C(=O)NC(C)(C)C(=O)N[C@@H](Cc1ccccc1)C(=O)N[C@@H](CC(C)C)C(=O)O ({Tyr(Nα,Nα-allyl2)}-[Aib][Aib]FL-OH) |  |  |  |  | -100% |  | 116 nM |
| Oc1ccc2c3c1O[C@H]1c4nc5ccccc5cc4C[C@@]4(O)[C@@H](C2)N(CC2CC2)CC[C@]314 | 0.407 nM | 11 nM | 51.1 | 27.1 | 32.4% | 20.8 nM | 9.78 nM |
| Oc1ccc2c3c1O[C@H]1c4[nH]c5ccccc5c4C[C@@]4(O)[C@@H](C2)N(CC(F)(F)F)CC[C@]314 | 134 nM | > 1000 nM |  |  | -44.8% | > 1000 nM | 45.5 nM |
| Oc1ccc2c3c1O[C@H]1c4nc5ccccc5cc4C[C@@]4(O)[C@@H](C2)N(CC(F)F)CC[C@]314 | 18.2 nM | > 1000 nM |  |  |  | > 1000 nM |  |
| Oc1ccc2c3c1O[C@H]1c4[nH]c5ccccc5c4C[C@@]4(O)[C@@H](C2)N(CC(F)F)CC[C@]314 | 15.5 nM | > 1000 nM |  |  | -48.6% | > 1000 nM | 17.2 nM |
| Oc1ccc2c3c1O[C@H]1c4[nH]c5ccccc5c4C[C@@]4(O)[C@@H](C2)N(CCF)CC[C@]314 | 1.94 nM | 397 nM | 348 | 204 | -38.1% | 675 nM | 220 nM |
| CCN1CC[C@]23c4c5ccc(O)c4O[C@H]2c2nc4ccccc4cc2C[C@@]3(O)[C@H]1C5 | 8.89 nM | 477 nM | 75.4 | 53.7 | 41.2% | 670 nM | 6.71 nM |
| CCCN1CC[C@]23c4c5ccc(O)c4O[C@H]2c2[nH]c4ccccc4c2C[C@@]3(O)[C@H]1C5 | 1.11 nM | 74.3 nM | 120 | 66.9 |  | 133 nM |  |
| CCN1CC[C@]23c4c5ccc(O)c4O[C@H]2c2[nH]c4ccccc4c2C[C@@]3(O)[C@H]1C5 | 2.71 nM | 468 nM | 291 | 172 |  | 788 nM |  |
